Tests used:
[1] = biological target: Tyrosine-protein kinase receptor UFO (Homo sapiens) (UniProt P30530); details: at 10 µM
[2] = biological target: T1, Ephrin type-B receptor 6 (Homo sapiens) (UniProt O15197); assay: Selectivity interaction (KinomeScan (DiscoverX)) EUB0000229b EPHB6; details: at 10 µM
T1 sequence (whole entry): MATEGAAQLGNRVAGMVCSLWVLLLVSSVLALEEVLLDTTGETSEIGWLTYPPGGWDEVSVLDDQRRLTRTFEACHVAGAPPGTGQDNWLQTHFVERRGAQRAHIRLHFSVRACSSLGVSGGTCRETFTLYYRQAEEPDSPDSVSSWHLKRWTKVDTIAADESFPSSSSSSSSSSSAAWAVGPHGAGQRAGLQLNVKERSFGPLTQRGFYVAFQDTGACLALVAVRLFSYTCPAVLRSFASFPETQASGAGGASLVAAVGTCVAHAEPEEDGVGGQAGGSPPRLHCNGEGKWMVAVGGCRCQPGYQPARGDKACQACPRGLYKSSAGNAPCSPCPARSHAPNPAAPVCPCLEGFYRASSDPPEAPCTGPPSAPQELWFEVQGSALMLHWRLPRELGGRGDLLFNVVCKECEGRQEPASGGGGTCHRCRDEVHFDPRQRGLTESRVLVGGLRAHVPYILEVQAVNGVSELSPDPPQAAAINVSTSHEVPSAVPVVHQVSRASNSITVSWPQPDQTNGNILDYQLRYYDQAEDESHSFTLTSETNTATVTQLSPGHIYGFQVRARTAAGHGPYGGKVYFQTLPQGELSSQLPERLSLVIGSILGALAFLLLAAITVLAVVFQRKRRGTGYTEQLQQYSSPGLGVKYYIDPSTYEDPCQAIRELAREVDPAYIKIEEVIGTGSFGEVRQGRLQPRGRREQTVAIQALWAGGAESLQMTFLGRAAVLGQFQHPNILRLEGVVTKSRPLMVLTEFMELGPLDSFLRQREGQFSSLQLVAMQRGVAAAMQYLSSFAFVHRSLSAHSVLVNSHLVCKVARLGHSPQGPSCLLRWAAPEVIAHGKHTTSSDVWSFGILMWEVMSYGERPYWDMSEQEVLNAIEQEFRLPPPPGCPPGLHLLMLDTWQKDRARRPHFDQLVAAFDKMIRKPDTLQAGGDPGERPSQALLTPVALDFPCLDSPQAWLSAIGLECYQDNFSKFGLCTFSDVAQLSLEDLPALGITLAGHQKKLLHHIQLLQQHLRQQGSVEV

[3] = biological target: 5-hydroxytryptamine receptor 5A (Homo sapiens) (UniProt P47898); assay: Selectivity interaction (GPCR panel (PDSP screen)) EUB0001079a HTR5A; details: at 10 µM
[4] = biological target: T2, Serine/threonine-protein kinase TAO1 (Homo sapiens) (UniProt Q7L7X3); assay: Selectivity interaction (KinomeScan (DiscoverX)) EUB0001619a TAOK1; details: at 1 µM
T2 sequence (whole entry): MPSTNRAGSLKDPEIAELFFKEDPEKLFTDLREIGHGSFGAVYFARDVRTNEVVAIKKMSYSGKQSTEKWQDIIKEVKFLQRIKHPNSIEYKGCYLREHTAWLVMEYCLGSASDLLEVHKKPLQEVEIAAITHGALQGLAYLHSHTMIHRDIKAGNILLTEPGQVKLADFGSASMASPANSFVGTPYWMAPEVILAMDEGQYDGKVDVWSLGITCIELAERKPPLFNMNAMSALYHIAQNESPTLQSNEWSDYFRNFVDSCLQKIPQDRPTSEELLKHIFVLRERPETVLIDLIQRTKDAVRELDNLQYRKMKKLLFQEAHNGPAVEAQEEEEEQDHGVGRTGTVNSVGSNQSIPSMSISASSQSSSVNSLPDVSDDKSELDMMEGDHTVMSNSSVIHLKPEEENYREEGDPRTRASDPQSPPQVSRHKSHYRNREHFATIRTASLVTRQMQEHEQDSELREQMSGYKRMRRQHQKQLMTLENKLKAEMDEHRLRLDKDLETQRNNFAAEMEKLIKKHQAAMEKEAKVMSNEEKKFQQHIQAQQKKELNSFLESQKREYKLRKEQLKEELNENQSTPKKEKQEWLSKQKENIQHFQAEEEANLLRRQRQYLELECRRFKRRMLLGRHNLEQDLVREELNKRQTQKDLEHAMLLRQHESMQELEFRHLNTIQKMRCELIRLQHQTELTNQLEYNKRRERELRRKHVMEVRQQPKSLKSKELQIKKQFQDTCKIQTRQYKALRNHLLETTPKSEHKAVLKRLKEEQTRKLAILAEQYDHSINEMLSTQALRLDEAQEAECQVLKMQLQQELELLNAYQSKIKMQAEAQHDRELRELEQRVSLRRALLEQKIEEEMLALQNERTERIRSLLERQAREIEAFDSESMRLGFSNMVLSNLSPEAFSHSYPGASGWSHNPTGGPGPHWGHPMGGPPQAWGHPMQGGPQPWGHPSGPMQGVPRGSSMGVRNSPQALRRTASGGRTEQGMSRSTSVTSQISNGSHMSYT

5-hydroxytryptamine receptor 5A (Homo sapiens), sequence (P47898 whole entry): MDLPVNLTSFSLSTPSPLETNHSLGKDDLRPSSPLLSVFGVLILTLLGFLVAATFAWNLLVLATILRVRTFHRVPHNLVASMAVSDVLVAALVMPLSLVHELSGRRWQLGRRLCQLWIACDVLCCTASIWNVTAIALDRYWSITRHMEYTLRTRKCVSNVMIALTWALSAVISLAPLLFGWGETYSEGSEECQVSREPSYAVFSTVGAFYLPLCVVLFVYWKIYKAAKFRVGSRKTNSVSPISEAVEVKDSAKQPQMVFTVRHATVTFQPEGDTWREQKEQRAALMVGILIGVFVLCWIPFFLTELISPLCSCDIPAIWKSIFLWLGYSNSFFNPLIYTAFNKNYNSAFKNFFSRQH
Tyrosine-protein kinase receptor UFO (Homo sapiens), sequence (P30530 whole entry): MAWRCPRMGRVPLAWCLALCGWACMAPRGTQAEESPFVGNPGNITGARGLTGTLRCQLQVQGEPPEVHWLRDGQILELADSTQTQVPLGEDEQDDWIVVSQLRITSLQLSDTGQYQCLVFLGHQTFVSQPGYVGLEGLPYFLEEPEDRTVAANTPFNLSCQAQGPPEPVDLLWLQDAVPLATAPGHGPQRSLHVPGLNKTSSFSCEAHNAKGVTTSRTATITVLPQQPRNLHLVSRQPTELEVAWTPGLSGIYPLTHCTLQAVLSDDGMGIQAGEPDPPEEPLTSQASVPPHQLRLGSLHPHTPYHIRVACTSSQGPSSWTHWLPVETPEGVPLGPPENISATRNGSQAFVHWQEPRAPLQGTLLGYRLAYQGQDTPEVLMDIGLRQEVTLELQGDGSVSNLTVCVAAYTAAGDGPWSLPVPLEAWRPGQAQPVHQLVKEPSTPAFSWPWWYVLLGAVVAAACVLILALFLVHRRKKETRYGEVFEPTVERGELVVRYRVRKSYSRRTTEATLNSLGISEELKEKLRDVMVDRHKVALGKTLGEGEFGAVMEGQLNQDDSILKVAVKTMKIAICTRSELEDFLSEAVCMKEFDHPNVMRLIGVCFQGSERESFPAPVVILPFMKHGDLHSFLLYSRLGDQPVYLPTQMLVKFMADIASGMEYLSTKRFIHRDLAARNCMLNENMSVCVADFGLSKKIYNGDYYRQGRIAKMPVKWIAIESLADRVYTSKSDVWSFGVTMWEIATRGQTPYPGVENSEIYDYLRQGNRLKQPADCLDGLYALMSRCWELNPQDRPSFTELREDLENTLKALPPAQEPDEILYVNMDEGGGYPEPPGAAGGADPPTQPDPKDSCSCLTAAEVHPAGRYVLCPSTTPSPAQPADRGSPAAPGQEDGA

Cc1cc([C@@H](C)Nc2ccccc2C(=O)O)c2nc(N3CCOCC3)cc(=O)n2c1 [AZD-6482]
% of control [1]: 86%

COc1cc(N(C)c2ccnc3ccc(C(F)(F)F)cc23)cc(OC)c1OC
% binding [2]: 81%

Nc1cnc(N2CCc3cc(S(=O)(=O)Nc4c(F)cc(Cl)cc4F)cc(N4CCCC4=O)c32)nc1 [TP-020n]
% of inhibition [3]: -4.87%

N#Cc1cccc(-c2c[nH]c3ncnc(N4CCOCC4)c23)c1
% of control [4]: 6.4%
